Data published in patent publication US6803380B1, “5-aryl-1h-1,2,4-triazole compounds as inhibitors of cyclooxygenase-2 and pharmaceutical compositions containing them” (Laboratoire Theramex, priority 1999, dated 2004).
Like-named read-outs stand apart in the source and are kept apart here.

Key:
COX-1 = molecular target: T1, COX-1 (Ovis aries, UniProt P05979); experiment: Inhibition of purified COX-1 activity in vitro (PGE2 by enzymo-immunoassay); assay type: biochemical, ram; conditions: for % COX-1 inhibition: negative sign = inhibition
T1 construct: Purified COX-1 from ram seminal vesicles; purchased Cayman Chemicals; host or cells: ram seminal vesicles (tissue-purified)
T1 sequence (P05979 25-600): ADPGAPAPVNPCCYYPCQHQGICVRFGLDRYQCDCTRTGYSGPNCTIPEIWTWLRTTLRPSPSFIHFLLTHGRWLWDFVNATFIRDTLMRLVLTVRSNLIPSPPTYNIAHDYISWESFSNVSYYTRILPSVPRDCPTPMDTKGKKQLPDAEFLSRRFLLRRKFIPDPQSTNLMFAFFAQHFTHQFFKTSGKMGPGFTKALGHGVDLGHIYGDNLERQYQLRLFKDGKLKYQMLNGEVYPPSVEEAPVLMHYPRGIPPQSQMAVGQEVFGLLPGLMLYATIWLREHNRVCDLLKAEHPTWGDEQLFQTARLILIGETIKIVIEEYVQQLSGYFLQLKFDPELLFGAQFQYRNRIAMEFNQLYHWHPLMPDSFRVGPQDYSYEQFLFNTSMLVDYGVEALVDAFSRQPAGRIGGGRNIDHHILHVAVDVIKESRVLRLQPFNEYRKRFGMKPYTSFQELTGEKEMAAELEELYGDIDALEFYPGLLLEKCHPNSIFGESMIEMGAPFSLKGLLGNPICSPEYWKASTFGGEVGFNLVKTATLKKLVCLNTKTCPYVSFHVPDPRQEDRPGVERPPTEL
Procedure: (§1) Example compounds according to the invention were tested for their ability to inhibit COX-1 and/or COX-2 activities in vitro. Purified COX-1 from ram seminal vesicles and purified COX-2 from ewe placenta (both from Cayman Chemicals) were incubated for 10 minutes at 25° C. in the presence of their substrate, arachidonic acid (5 μM), with or without test compounds or standard inhibitors. Prostaglandin E2, the reaction product, was measured by enzymo-immunoassay (R&D Systems). Each individual value results from duplicate determinations. Final inhibition data are means±standard errors of at least (3) independent experiments performed on as many different days.

COX-2 = molecular target: T2, COX-2 (Ovis aries, UniProt P79208); experiment: Inhibition of purified COX-2 activity in vitro (PGE2 by enzymo-immunoassay); assay type: biochemical, ewe; conditions: for COX-2 inhibitory potency compared with nimesulide (in words): same concentration, 1 μM
T2 construct: purified COX-2 from ewe placenta; purchased Cayman Chemicals; host or cells: ewe placenta (tissue-purified)
T2 sequence (P79208 17-603): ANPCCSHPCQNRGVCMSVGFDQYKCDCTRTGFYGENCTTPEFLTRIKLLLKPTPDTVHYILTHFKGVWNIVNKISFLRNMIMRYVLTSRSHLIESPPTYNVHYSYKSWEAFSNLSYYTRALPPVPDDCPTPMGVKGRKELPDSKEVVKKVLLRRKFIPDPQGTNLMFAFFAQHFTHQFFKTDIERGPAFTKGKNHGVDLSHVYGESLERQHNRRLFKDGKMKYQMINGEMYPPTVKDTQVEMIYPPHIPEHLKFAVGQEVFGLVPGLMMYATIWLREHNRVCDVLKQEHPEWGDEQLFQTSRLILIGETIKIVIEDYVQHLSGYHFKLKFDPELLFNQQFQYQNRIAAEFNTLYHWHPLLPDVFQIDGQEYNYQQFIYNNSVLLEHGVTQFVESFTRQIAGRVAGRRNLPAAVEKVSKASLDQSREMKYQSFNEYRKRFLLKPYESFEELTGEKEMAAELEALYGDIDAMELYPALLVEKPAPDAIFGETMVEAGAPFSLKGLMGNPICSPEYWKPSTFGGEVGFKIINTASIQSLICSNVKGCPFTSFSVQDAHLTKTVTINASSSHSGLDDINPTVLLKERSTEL
Procedure: as §1

[1] = concentration 1 μM, read-out: % COX-2 inhibition

For `CS(=O)(=O)c1ccc(-c2nc(C(F)(F)F)nn2-c2cccnc2)cc1.Cl`, the melting point was 180 °C.

With `Cc1nc(-c2ccc(S(C)(=O)=O)cc2)n(-c2ccc(F)cc2)n1` [Example 2, 1-(4-fluoro-phenyl)-3-methyl-5-(4-methylsulfonyl-phenyl)-1H-1,2,4-triazole] the melting point was 180 °C.

For `Cc1nc(-c2ccc(S(C)(=O)=O)cc2)n(-c2ccc(Cl)cc2)n1` [Example 3, 1-(4-chloro-phenyl)-3-methyl-5-(4-methylsulfonyl-phenyl)-1H-1,2,4-triazole], the melting point was 186 °C, the “inhibition of COX-1 (in words)” value (COX-1; concentration 1 μM) was “did not show any significant inhibition of COX-1” and the “% COX-1 inhibition” value (COX-1; concentration 1 μM) was −2 ± 5.7%. The “selective inhibition of COX-2 (in words)” value (COX-2; concentration 1 μM) was “able to inhibit COX-2 selectively” and the inhibition at 1 µM (COX-2; [1]) was 19 ± 2.6%.

Work on `Cc1ccc(-n2nc(C)nc2-c2ccc(S(C)(=O)=O)cc2)cc1` [Example 4, 3-methyl-1-(4-methyl-phenyl)-5-(4-methylsulfonyl-phenyl)-1H-1,2,4-triazole] yielded a melting point of 176 °C.

`Cc1nc(-c2ccc(S(C)(=O)=O)cc2)n(-c2ccccc2)n1` [Example 5, 3-methyl-5-(4-methylsulfonyl-phenyl)-1-phenyl-1H-1,2,4-triazole] showed a melting point of 146 °C.

`Cc1nc(-c2ccc(S(C)(=O)=O)cc2)n(-c2ccccc2Cl)n1` [Example 6, 1-(2-chloro-phenyl)-3-methyl-5-(4-methylsulfonyl-phenyl)-1H-1,2,4-triazole] gave a melting point of 170 °C.

`Cc1nc(-c2ccc(S(C)(=O)=O)cc2)n(-c2cccc(Cl)c2)n1` [Example 7, 1-(3-chloro-phenyl)-3-methyl-5-(4-methylsulfonyl-phenyl)-1H-1,2,4-triazole] showed a melting point of 130 °C.

With `Cc1nc(-c2ccc(S(C)(=O)=O)cc2)n(-c2ccc(Br)cc2)n1` [Example 9, 1-(4-bromo-phenyl)-3-methyl-5-(4-methylsulfonyl-phenyl)-1H-1,2,4-triazole] the melting point was 188 °C.

For `COc1ccc(-n2nc(C)nc2-c2ccc(S(C)(=O)=O)cc2)cc1` [Example 10, 1-(4-methoxy-phenyl)-3-methyl-5-(4-methylsulfonyl-phenyl)-1H-1,2,4-triazole], the melting point was 128 °C, the “inhibition of COX-1 (in words)” value (COX-1; concentration 1 μM) was “did not show any significant inhibition of COX-1” and the “% COX-1 inhibition” value (COX-1; concentration 1 μM) was −4 ± 14.6%. For the same molecule, the “selective inhibition of COX-2 (in words)” value (COX-2; concentration 1 μM) was “able to inhibit COX-2 selectively” and the inhibition at 1 µM (COX-2; [1]) was 32 ± 4.5%.

`Cc1nc(-c2ccc(S(C)(=O)=O)cc2)n(-c2ccc(F)cc2F)n1` [Example 11, 1-(2,4-difluoro-phenyl)-3-methyl-5-(4-methylsulfonyl-phenyl)-1H-1,2,4-triazole] showed a melting point of 160 °C.

`Cc1nc(-c2ccc(S(C)(=O)=O)cc2)n(-c2ccc([N+](=O)[O-])cc2)n1` [Example 12, 3-methyl-5-(4-methylsulfonyl-phenyl)-1-(4-nitro-phenyl)-1H-1,2,4-triazole] showed a melting point of 180 °C.

With `Cc1nc(-c2ccc(S(C)(=O)=O)cc2)n(-c2ccc(F)c(F)c2)n1` [Example 13, 1-(3,4-difluoro-phenyl)-3-methyl-5-(4-methylsulfonyl-phenyl)-1H-1,2,4-triazole] the melting point was 194 °C.

In the case of `COc1ccc(-n2nc(C)nc2-c2ccc(S(C)(=O)=O)cc2)cc1OC` [Example 14, 1-(3,4-dimethoxy-phenyl)-3-methyl-5-(4-methylsulfonyl-phenyl)-1H-1,2,4-triazole], the melting point is reported as 186 °C.

For `Cc1nc(-c2ccc(S(C)(=O)=O)cc2)n(-c2ccc(N(C)C)cc2)n1` [Example 15, 1-(4-dimethylamino-phenyl)-3-methyl-5-(4-methylsulfonyl-phenyl)-1H-1,2,4-triazole], the melting point was 200 °C, the “inhibition of COX-1 (in words)” value (COX-1; concentration 1 μM) was “did not show any significant inhibition of COX-1” and the “% COX-1 inhibition” value (COX-1; concentration 1 μM) was “+2 ± 7.0%”. For the same molecule, the “selective inhibition of COX-2 (in words)” value (COX-2; concentration 1 μM) was “able to inhibit COX-2 selectively” and the inhibition at 1 µM (COX-2; [1]) was 18 ± 7%.

With `COc1ccc(-n2nc(C(F)(F)F)nc2-c2ccc(S(C)(=O)=O)cc2)cc1` [Example 17, 1-(4-methoxy-phenyl)-5-(4-methylsulfonyl-phenyl)-3-trifluoromethyl-1H-1,2,4-triazole] the melting point was 156 °C, the “inhibition of COX-1 (in words)” value (COX-1; concentration 1 μM) was “did not show any significant inhibition of COX-1” and the “% COX-1 inhibition” value (COX-1; concentration 1 μM) was “+8 ± 2.7%”. For the same molecule, the “selective inhibition of COX-2 (in words)” value (COX-2; concentration 1 μM) was “able to inhibit COX-2 selectively”, the inhibition at 1 µM (COX-2; [1]) was 44 ± 6.8% and the “COX-2 inhibitory potency compared with nimesulide (in words)” value (COX-2) was “even more potent”.

Work on `CS(=O)(=O)c1ccc(-c2nc(C(F)(F)F)nn2-c2ccc(F)cc2)cc1` [Example 20, 1-(4-fluoro-phenyl)-5-(4-methylsulfonyl-phenyl)-3-trifluoromethyl-1H-1,2,4-triazole] yielded a melting point of 230 to 232 °C.

Molecule `CS(=O)(=O)c1ccc(-c2nc(C(F)(F)F)nn2-c2ccc(Cl)cc2)cc1` [Example 21, 1-(4-chloro-phenyl)-5-(4-methylsulfonyl-phenyl)-3-trifluoromethyl-1H-1,2,4-triazole] has a melting point of 190 to 192 °C.

`CS(=O)(=O)c1ccc(-c2nc(C(F)(F)F)nn2C2CCCCC2)cc1` [Example 22, 1-(cyclohexyl)-5-(4-methylsulfonyl-phenyl)-3-trifluoromethyl-1H-1,2,4-triazole] gave a melting point of 136 °C.

With `COc1ccc(Cn2nc(C(F)(F)F)nc2-c2ccc(S(C)(=O)=O)cc2)cc1OC` [Example 23, 1-(3,4-dimethoxy-phenyl-methyl)-5-(4-methylsulfonyl-phenyl)-3-trifluoromethyl-1H-1,2,4-triazole] the melting point was 142 °C.

In the case of `COc1ccc(-n2nc(C(F)(F)F)nc2-c2ccc(S(C)(=O)=O)cc2Cl)cc1` [Example 24, 5-(2-chloro-4-methylsulfonyl-phenyl)-1-(4-methoxy-phenyl)-3-trifluoromethyl-1H-1,2,4-triazole], the melting point is reported as 148 °C.

`CS(=O)(=O)c1ccc(-c2nc(C(F)(F)F)nn2-c2ccc(S(C)(=O)=O)cc2)cc1` [Example 26, 1,5-di-(4-methylsulfonyl-phenyl)-3-trifluoromethyl-1H-1,2,4-triazole] showed a melting point of 214 °C.

`COc1ccc(-n2nc(C(F)(F)F)nc2-c2ccc(S(C)(=O)=O)cc2)cc1OC` [Example 27, 1-(3,4-dimethoxy-phenyl)-5-(4-methylsulfonyl-phenyl)-3-trifluoromethyl-1H-1,2,4-triazole] gave a melting point of 140 °C.

Work on `CS(=O)(=O)c1ccc(-c2nc(C(F)(F)F)nn2-c2ccc3c(c2)OCO3)cc1` [Example 28, 1-(3,4-methylenedioxy-phenyl)-5-(4-methylsulfonyl-phenyl)-3-trifluoromethyl-1H-1,2,4-triazole] yielded a melting point of 185 °C.

For `COc1ccc(-n2nc(C(F)(F)F)nc2-c2ccc(S(C)(=O)=O)cc2)cc1F` [Example 33, 1-(3-fluoro-4-methoxy-phenyl)-5-(4-methylsulfonyl-phenyl)-3-trifluoromethyl-1H-1,2,4-triazole], the melting point was 180 °C.

In the case of `COc1ccc(-n2nc(C(F)(F)F)nc2-c2ccc(S(N)(=O)=O)cc2)cc1` [Example 34, 1-(4-methoxy-phenyl)-5-(4-aminosulfonyl-phenyl)-3-trifluoromethyl-1H-1,2,4-triazole], the “inhibition of COX-1 (in words)” value (COX-1; concentration 1 μM) is reported as “did not show any significant inhibition of COX-1”, the “% COX-1 inhibition” value (COX-1; concentration 1 μM) is reported as −16 ± 10% and the “selective inhibition of COX-2 (in words)” value (COX-2; concentration 1 μM) is reported as “able to inhibit COX-2 selectively”. For the same molecule, the inhibition at 1 µM (COX-2; [1]) was 78 ± 2% and the “COX-2 inhibitory potency compared with nimesulide (in words)” value (COX-2) was “even more potent”.

With `CS(=O)(=O)Nc1ccc([N+](=O)[O-])cc1Oc1ccccc1` [Nimesulide, reference compound] the “% COX-1 inhibition” value (COX-1; concentration 0.1 μM) was “+7 ± 6.6%”, the “% COX-1 inhibition” value (COX-1; concentration 1 μM) was “+16 ± 12.2%” and the “% COX-1 inhibition” value (COX-1; concentration 10 μM) was “+13 ± 8.3%”. The inhibition at 0.1 µM (COX-2; read-out: % COX-2 inhibition) was 23 ± 5.4%, the inhibition at 1 µM (COX-2; read-out: % COX-2 inhibition) was 30 ± 3.2% and the inhibition at 10 µM (COX-2; read-out: % COX-2 inhibition) was 50%.
